# Patent publication US12011443B2, “Pharmaceutical composition for preventing or treating nonalcoholic steatohepatitis” (J2H BIOTECH INC., priority 2018, dated 2024)
# Assays:
# [1] = test system: non-alcoholic steatohepatitis C57BL/6 mouse model induced by the methionine and choline deficient (MCD) diet; assay: Non-alcoholic steatohepatitis treatment model (MCD diet), 6 weeks repeated oral administration; format: in vivo, C57BL/6 mice; details: for LDL level (blood biochemical test) / oil red O staining area level: p<0.01
# Description: The MCD model, which is an animal model of steatohepatitis, was used. C57BL/6 mice were supplied with a MCD (methionine-choline deficient) diet for 5 days, followed by a normal diet for 2 days. In this way, for 10 weeks, the MCD diet and normal diet were alternately supplied. Animals were identified using tail marks during the acclimatization period (blue), dosing and observation period (red). Individual identification cards, distinguished by color, were attached to the breeding box, and an animal room usage record was attached to the entrance of the breeding room.
# During the acclimatization period, blood biochemical tests and body weight measurements were performed. Mice were randomly distributed so that the average of each group was distributed as uniformly as possible according to the ranked ALT and body weight levels. [10 animals in the normal feed group (G1), 40 animals in the MCD diet group (G2-G5)]
# The improvement effect that appeared when the test compound was repeatedly administered for 6 weeks to the non-alcoholic steatohepatitis C57BL/6 mouse model induced over 10 weeks with the MCD diet was evaluated. Test compound was administered once a day for 6 weeks. As a positive control, obeticholic acid (hereinafter referred to as OCA), which is currently undergoing a phase 3 clinical trial with non-alcoholic steatohepatitis as an indication, was used.
# In the case of a control compound (obeticholic acid, 10 mg/kg/day), an appropriate amount was weighed and then diluted in sterile distilled water and administered. In the case of the test compound, after weighing the appropriate amount, it was diluted with 0.5 wt % methyl cellulose aqueous solution to which 1 wt % Tween 80 was added. During oral administration, the weight of the mouse was measured, and the animals were fixed using the cervical skin fixation method, and each test compound was administered using a sonde for oral administration.
# It was measured at the start of administration, and once a week and on the day of autopsy after the start of administration.
# It was measured right before the start of administration, and once a week after the start of administration of the test compound. As for the measurement method, the remaining amount of feed was measured per unit of breeding box next day after quantitative feeding, the difference was calculated, and the average intake per mouse was calculated.
# The following items were tested using a blood biochemical analyzer (7180 Hitachi, Japan) with blood collected and separated at right before and the 6th week (the day of autopsy) after administration of the test compound.
# Six weeks after administration of the test compound: ALT (alanine transaminase), AST (aspartate transaminase), TG (triglyceride), TCHO (total cholesterol), HDL (high-density lipoprotein), LDL (low-density lipoprotein), GGT (Gamma-glutamyltransferase), LDH (Lactate dehydrogenase)
# On the day of autopsy, pimonidazole was diluted in saline at a concentration of 30 mg/ml, and then administered intravenously at a dose of 60 mg/kg. Animals were euthanized 90 minutes after administration. At each autopsy, the animals were inhaled with ether, and when anesthesia was confirmed, blood was collected from the posterior vena cava using a syringe. Thereafter, the abdominal aorta and posterior vena cava were cut, bleeding, and killed. Blood was injected into a vacutainer tube containing a clot activator, allowed to stand at room temperature for about 15 minutes to coagulate, and then centrifuged at 3,000 rpm for 10 minutes to separate the serum. Serum was stored in a deep freezer set at −70° C. or lower before analysis, and was used for blood biochemical tests.
# At autopsy, the liver was excised and weighed, the right lobe of the liver was fixed in 10% neutral buffered formalin solution, and the left lobe was divided into half and rapidly frozen using liquid nitrogen. The quick-frozen specimens were stored in a cryogenic freezer set at −70° C. or lower until ELISA analysis. […]
# [2] = single administration and combined administration with metformin; cited from earlier work
# [3] = test system: non-alcoholic steatohepatitis prevention model, MCD feed, mice (C57BL/6); assay: Non-alcoholic steatohepatitis prevention model (MCD feed with simultaneous administration for 12 weeks); format: in vivo; details: 12 weeks with MCD feed, vs vehicle control group (G2)
# Experimental: The efficacy of the test compound for preventing non-alcoholic steatohepatitis was evaluated. Using 7-week-old mice (C57BL/6), the normal group (G1) was supplied with general feed, and the vehicle control group (G2), positive control group (G3), and test groups (G4, G5) were supplied with the MCD feed for 12 weeks. Simultaneously with the MCD diet, test compounds and controls were administered orally once a day. Mice were divided into five groups, and a total of 75 mice, 15 mice per each group, were used for the experiment.
# In order to evaluate the prophylactic efficacy, the test compound was administered for 12 weeks at the same time as induction with the MCD diet, and the efficacy of the test compound for the prevention of steatohepatitis was evaluated.
# Each appropriate amount of the control compound (Obeticholic acid, 10 mg/kg/day) and the test compound was weighed, and then diluted in 0.5 wt % methyl cellulose aqueous solution to which 1 wt % Tween 80 was added. During oral administration, the weight of the mouse was measured, and the animals were fixed using the cervical skin fixation method, and each test substance was administered using a sonde for oral administration. […]
# [4] = Tissue concentration after oral administration to the mouse; format: in vivo; details: 2 hours after oral administration
# [5] = clinical trials; cited from earlier work
# [6] = 10 mg/kg/day (G4), vs vehicle control group (G2)
# [7] = 30 mg/kg/day (G5), vs vehicle control group (G2)
smiles,measurement,setting,value
"C[C@@H]1CN(c2ccc(S(C)(=O)=O)cc2F)CCN1c1nccc(C(=O)N[C@H]2C3CC4CC2C[C@](O)(C4)C3)n1 [Chemical Formula 1, 2-((R)-4-(2-fluoro-4-(methylsulfonyl)phenyl)-2-methylpiperazin-1-yl)-N-((1R,2s,3S,5S,7S)-5-hydroxyadamantan-2-yl)pyrimidine-4-carboxamide]",ALT level (blood biochemical test),"[1]; 10 mg/kg/day (G3, G4) oral once a day, vs vehicle control group (G2), p<0.05",significantly lower
same,Hydroxyproline expression area level,"[1]; 10 mg/kg/day (G3, G4), vs normal control group (G1), p<0.001 or p<0.05",significantly higher
same,Hydroxyproline expression area level,"[1]; 10 mg/kg/day (G3, G4), vs vehicle control group (G2), p<0.001 or p<0.01",significantly lower
same,TCHO level in liver tissue (ELISA),[1]; [6],significantly lower
same,TG level in liver tissue (ELISA),[1]; [6],significantly lower
same,LDL level (blood biochemical test),"[1]; 10 mg/kg/day (G4), vs vehicle control group (G2) and positive control group (G3)",significantly lower
same,oil red O staining area level,"[1]; 10 mg/kg/day (G4), vs vehicle control group",significantly lower
same,ALT level (blood biochemical test),"[1]; 30 mg/kg/day (G5) oral once a day, vs vehicle control group (G2), p<0.001 or p<0.05",significantly lower
same,TCHO level in liver tissue (ELISA),[1]; [7],significantly lower
same,TG level in liver tissue (ELISA),[1]; [7],significantly lower
same,LDL level (blood biochemical test),"[1]; 30 mg/kg/day (G5), vs vehicle control group (G2) and positive control group (G3)",significantly lower
same,relative liver weight level,"[1]; 30 mg/kg/day (G5), vs vehicle control group (G2) and positive control group (G3), p<0.01 or p<0.05",significantly lower
same,Hydroxyproline expression area level,"[1]; 30 mg/kg/day (G5), vs vehicle control group (G2), p<0.001 or p<0.01",significantly lower
same,AST level (blood biochemical test),"[1]; 30 mg/kg/day (G5), vs vehicle control group (G2), p<0.001 or p<0.05",significantly lower
same,liver weight level (absolute),"[1]; 30 mg/kg/day (G5), vs vehicle control group (G2), p<0.05",significantly lower
same,oil red O staining area level,"[1]; 30 mg/kg/day (G5), vs vehicle control group",significantly lower
same,microvesicular steatosis level (histopathology),"[1]; 30 mg/kg/day (G5), vs vehicle control group, p<0.05",significantly lower
same,effect of alleviating non-alcoholic steatohepatitis,"[1]; 30 mg/kg/day, compared to positive control compound",superior
same,"blood biochemistry, liver relative weight, TG and TCHO content in liver tissue, and microvesicular steatosis level","[1]; high dose administration group, vs positive control group",lower than those of the positive control group
same,LDH (FIG. 2),"[1]; high-dose administration group, compared to normal group",concentration similar to that of the normal group
same,levels of inflammation (histopathology),"[1]; test compound administration group, vs vehicle control group",lower levels of inflammation
same,LDH (FIG. 2),"[1]; test compound groups, compared to the positive control group",tends to decrease LDH
same,efficacy as therapeutic agent for type 2 diabetes,[2],did not show sufficient efficacy
same,triglycerides in liver tissue,"[3]; 10 mg/kg/day (G3, G4) oral once a day",statistically significant decrease
same,triglycerides in liver tissue,[3]; 30 mg/kg/day (G5) oral once a day,statistically significant decrease
same,concentration of the liver tissue compared with plasma concentration,[4],higher than the plasma concentration
"CC[C@H]1[C@@H](O)[C@@H]2[C@H](CC[C@]3(C)[C@@H]([C@H](C)CCC(=O)O)CC[C@@H]23)[C@@]2(C)CC[C@@H](O)C[C@@H]12 [OCA, obeticholic acid]",subjects showing stomach pain and fatigue,[5],more than 10%
same,"subjects with side effects like irregular heartbeat, dry skin, constipation, joint pain, peripheral edema, sore throat, thyroid hormone irregularity, rash",[5],about 10%
